Data published in patent publication US11360080B2, “AhR-ROR-γt complex as a biomarker and therapeutic target for autoimmune disease and IL-17A-associated disease” (NATIONAL HEALTH RESEARCH INSTITUTES, priority 2018, dated 2022).
Where a name gives a salt, the structure may show the parent alone.

Columns and labels:
[1] = target: T1, GLK−IQGAP1 interaction (Homo sapiens, UniProt Q8IVH8); assay: FRET assay of HEK293T cells with CFP- and YFP-fused GLK and IQGAP1; format: cell-based
T1 construct: expressed in transfected cells; host or cells: HEK293T
T1 sequence (Q8IVH8 whole entry, the tested form may be a part): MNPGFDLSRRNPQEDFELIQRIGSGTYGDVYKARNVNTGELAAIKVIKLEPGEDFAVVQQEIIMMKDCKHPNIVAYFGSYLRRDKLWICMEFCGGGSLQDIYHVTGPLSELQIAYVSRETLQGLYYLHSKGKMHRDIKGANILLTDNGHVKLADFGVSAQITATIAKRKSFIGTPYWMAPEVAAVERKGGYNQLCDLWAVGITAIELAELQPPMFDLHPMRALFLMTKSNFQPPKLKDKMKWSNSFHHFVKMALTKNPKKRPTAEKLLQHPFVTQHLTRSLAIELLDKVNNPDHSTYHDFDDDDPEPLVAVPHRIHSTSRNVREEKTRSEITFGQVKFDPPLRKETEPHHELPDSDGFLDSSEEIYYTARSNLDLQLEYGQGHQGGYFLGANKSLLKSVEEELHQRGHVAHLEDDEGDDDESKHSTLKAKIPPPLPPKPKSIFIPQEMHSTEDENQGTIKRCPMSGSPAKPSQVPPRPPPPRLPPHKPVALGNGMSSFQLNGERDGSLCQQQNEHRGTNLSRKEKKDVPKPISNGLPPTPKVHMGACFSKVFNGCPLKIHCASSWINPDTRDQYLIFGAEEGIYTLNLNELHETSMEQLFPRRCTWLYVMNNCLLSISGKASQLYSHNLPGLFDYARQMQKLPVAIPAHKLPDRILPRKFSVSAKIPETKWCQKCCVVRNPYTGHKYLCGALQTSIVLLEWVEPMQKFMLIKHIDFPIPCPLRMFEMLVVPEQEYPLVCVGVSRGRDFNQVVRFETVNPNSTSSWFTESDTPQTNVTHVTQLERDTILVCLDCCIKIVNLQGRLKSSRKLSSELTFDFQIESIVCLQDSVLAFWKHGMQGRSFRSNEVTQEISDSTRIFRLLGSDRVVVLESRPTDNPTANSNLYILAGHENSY
Method: (A) Silver-stained gel of anti-Flag immunoprecipitates from HEK293T cells transfected with empty vector or Flag-tagged GLK in the presence or absence of the tyrosine phosphatase inhibitor pervanadate (25 μM). Arrows indicate the positions of GLK or GLK-interacting proteins. (B) Four pervanadate-induced tyrosine phosphorylation residues of GLK proteins were listed. (C and D) Co-immunoprecipitation of anti-Flag (C) or anti-Myc (D) immunocomplexes from lysates of HEK293T cells transfected with Flag-tagged GLK, Myc-tagged IQGAP1, or both plasmids. The whole-cell lysate immunoblots before immunoprecipitation (Pre-IP) are shown at the bottom of each panel. β-Tubulin was used as the loading control. (E) Co-immunoprecipitation of anti-Flag immunocomplexes from lysates of HEK293T cells transfected with either Flag-tagged GLK or Flag-tagged GLK mutant (Y366F, Y379F, Y574F, or Y735F). […]
FRET signal in live cells was detected by EnVision 2104 Multilabel Plate Reader (Perkin Elmer). The reaction was excited by light passing through a 430-nm filter (with 8 nm bandwidth), and the intensity of emitted fluorescence passing through a 530-nm filter (with 8 nm bandwidth) was recorded. If the protein-protein pair is in close proximity (1-10 nm), a 530-nm signal will be detected. […]

[2] = tested on: human peripheral blood T cells; assay: ELISA of IL-17A in supernatants of human T cells stimulated with anti-CD3/CD28; format: cell-based; details: 1 μM or 5 μM for 3 days
Method: Means±SD are shown, (b) ELISA of IL-17A in supernatants of human T cells. T cells were stimulated with anti-CD3/CD28 and treated with C1 (verteporfin) (1 μM or 5 μM) or C2 (1 μM or 5 μM) for 3 days. HC, healthy control; SLE, systemic lupus erythematosus; RA, rheumatoid arthritis; AS, ankylosing spondylitis; PsA, psoriatic arthritis; PSS, primary Sjögren's syndrome. Means±SD are shown. C1 denotes verteporfin; C2 denotes alexidine dihydrochloride.
We further studied whether IL-17A production is abolished by the inhibitors of GLK-induced AhR-RORγt complex in human and murine T cells. We first tested the inhibitor experiment using murine T cells stimulated with TCR signaling (anti-CD3 plus anti-CD28 antibodies). […] Next, we studied the blocking effect of IL-17 production by the treatment of C1 (verteporfin) or C2 (alexidine dihydrochloride) using human peripheral blood T cells. […] Taken together, GLK inhibitors (verteporfin and alexidine dihydrochloride) inhibit GLK-induced AhR-RORγt complex and IL-17A production in human autoimmune patient T cells, as well as the disease severity of autoimmune animal models. Thus, GLK, GLK signaling, or GLK-induced AhR-RORγt complex can be a promising therapeutic target for autoimmune diseases.

Compound	FRET signals of GLK−IQGAP1 interaction [1]	IL-17A production, anti-CD3/CD28-stimulated T cells of autoimmune disease patients [2]	TCR-induced IL-17A production, T cells from healthy controls [2]
C=Cc1c(C)c2cc3nc(cc4[nH]c(cc5nc(cc1[nH]2)C(C)=C5CCC(=O)O)c(CCC(=O)OC)c4C)[C@@]1(C)C3=CC=C(C(=O)OC)[C@H]1C(=O)OC [C1, verteporfin]	inhibited	drastically inhibited	significantly reduced
CCCCC(CC)CNC(=N)NC(=N)NCCCCCCNC(=N)NC(=N)NCC(CC)CCCC (centres unmarked) [C2, alexidine dihydrochloride]	inhibited	drastically inhibited	–
